Experimental findings from PubChem BioAssay (NCI) are described below.

Values joined by “and” are separate entries in the source; they are usually repeats but may differ in a detail not shown here. Identical values can stand only once.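 Step 1: Grow cells in 96-well plates. Step 2: Expose to compound for 48 hours at 5 concentrations. Step 3: Interpolate endpoints linearly; if unreached, use highest concentration. GI50 = concentration required for 50% inhibition of growth. TGI: concentration producing complete growth inhibition.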

Among the test systems are COLO 205 colon; OVCAR-4 ovarian; RXF 393 renal; SN12C renal; HOP-92 NSCLC; UACC-62 melanoma; SK-MEL-5 melanoma; HCT-15 colon; CCRF-CEM leukemia; SK-MEL-2 melanoma.
Test in all cases: inhibition of tumour cell growth, NCI panel, 48 h

As to `COc1ccc(/C=C/c2cnc3ccccc3n2)cc1OC`, the TGI in the assay on COLO 205 colon, with OVCAR-4 ovarian, in the assay on RXF 393 renal, with SN12C renal, in the assay on HOP-92 NSCLC and in the assay with UACC-62 melanoma was above 100 µM in each case. In addition, the TGI with SK-MEL-5 melanoma, with HCT-15 colon, in the assay with CCRF-CEM leukemia and in the assay on SK-MEL-2 melanoma was above 100 µM throughout.

`O=C(O)c1oc2cccc3c2c1CCC3`: the TGI in the assay with COLO 205 colon, with OVCAR-4 ovarian, in the assay with RXF 393 renal, with SN12C renal, in the assay with HOP-92 NSCLC and with UACC-62 melanoma was above 100 µM in each case. The TGI in the assay with SK-MEL-5 melanoma, with HCT-15 colon, in the assay on CCRF-CEM leukemia and with SK-MEL-2 melanoma was above 100 µM each time.

As to `CNC(C)Cc1ccc(O)cc1` (stereo not drawn), the TGI in the assay with COLO 205 colon, in the assay on OVCAR-4 ovarian, with RXF 393 renal, in the assay with SN12C renal, in the assay with HOP-92 NSCLC and with UACC-62 melanoma was above 100 µM each time. Moreover, the TGI with SK-MEL-5 melanoma, in the assay with HCT-15 colon, in the assay on CCRF-CEM leukemia and in the assay on SK-MEL-2 melanoma was above 100 µM throughout.

`CC(C)(F)C[C@H](N[C@@H](c1ccc(-c2ccc(S(C)(=O)=O)cc2)cc1)C(F)(F)F)C(=O)NC1(C#N)CC1`: the GI50 in the assay on COLO 205 colon is above 100000 nM; in the assay with OVCAR-4 ovarian, 9.47 µM and 19.5 µM; in the assay with RXF 393 renal it was 7.14 µM and 20.5 µM; with SN12C renal it was 14.8 µM and 42.6 µM; in the assay with HOP-92 NSCLC, 5.81 µM and 7.42 µM; in the assay with UACC-62 melanoma it was 27.3 µM and 51.9 µM. Further, the GI50 with SK-MEL-5 melanoma is > 55 µM and 73.1 µM; with HCT-15 colon it was above 100 µM; in the assay on CCRF-CEM leukemia it was above 100000 nM; in the assay with SK-MEL-2 melanoma, 13.4 µM and 38.6 µM. The TGI in the assay with COLO 205 colon was above 100 µM; in the assay with OVCAR-4 ovarian, 42.8 µM and 47.4 µM; with RXF 393 renal it was 18 µM and 45.2 µM; with SN12C renal, 55 µM and > 100 µM; in the assay with HOP-92 NSCLC, 30.3 µM and 28.4 µM; in the assay with UACC-62 melanoma it was 55 µM and > 100 µM. The TGI in the assay with SK-MEL-5 melanoma is above 100 µM; in the assay on HCT-15 colon, above 100 µM; in the assay with CCRF-CEM leukemia, above 100 µM; with SK-MEL-2 melanoma, 55 µM and > 100 µM.

As to `C=C1C(=O)O[C@H]2[C@H]1CC/C(COC(=O)/C=C/c1c[nH]c3ccccc13)=C\CC[C@@]1(C)O[C@@H]21`, the GI50 was 225 nM with COLO 205 colon; 0.207 µM with OVCAR-4 ovarian; 0.172 µM with RXF 393 renal; 0.197 µM in the assay with SN12C renal; 0.156 µM in the assay on HOP-92 NSCLC; 0.177 µM in the assay with UACC-62 melanoma. Moreover, the GI50 in the assay with SK-MEL-5 melanoma was 0.208 µM; with HCT-15 colon, 0.181 µM; in the assay on CCRF-CEM leukemia it was 73.3 nM; in the assay on SK-MEL-2 melanoma, 0.208 µM. Further, the TGI was 0.541 µM in the assay on COLO 205 colon; 0.546 µM with OVCAR-4 ovarian; 0.331 µM in the assay with RXF 393 renal; 0.478 µM with SN12C renal; 0.369 µM in the assay on HOP-92 NSCLC; 0.379 µM in the assay with UACC-62 melanoma. Moreover, the TGI was 0.516 µM in the assay with SK-MEL-5 melanoma, 0.425 µM in the assay with HCT-15 colon, 0.854 µM with CCRF-CEM leukemia and 0.412 µM in the assay on SK-MEL-2 melanoma.

In the case of `Cc1c(N)nc(C(CC(N)=O)NCC(N)C(N)=O)nc1C(=O)NC(C(=O)NC(C)C(O)C(C)C(=O)NC(C(=O)NCCc1nc(-c2nc(C(=O)NCCCNCCCCN)cs2)cs1)C(C)O)C(OC1OC(CO)C(O)C(O)C1OC1OC(CO)C(O)C(OC(N)=O)C1O)c1cnc[nH]1` (stereo not drawn), the GI50 was 8.7 µg/mL and 4.7 µg/mL in the assay on COLO 205 colon; 3.12 µg/mL and 2.58 µg/mL with SN12C renal; 3.38 µg/mL with HOP-92 NSCLC; 0.605 µg/mL and 0.744 µg/mL in the assay on UACC-62 melanoma; 1.05 µg/mL and 0.164 µg/mL in the assay on SK-MEL-5 melanoma; 1.92 µg/mL with HCT-15 colon. Also, the GI50 with CCRF-CEM leukemia is 3.15 µg/mL. The TGI is above 10 µM in the assay on COLO 205 colon; above 10 µM in the assay on OVCAR-4 ovarian; 3.45 µM in the assay on RXF 393 renal; 27.6 µg/mL and > 10 µM in the assay with SN12C renal; 25.6 µg/mL and > 10 µM with UACC-62 melanoma; 15.9 µg/mL and > 10 µM in the assay with SK-MEL-5 melanoma. For the same molecule, the TGI in the assay on HCT-15 colon, with CCRF-CEM leukemia and in the assay with SK-MEL-2 melanoma was above 10 µM each time.

For the molecule `C#CCOc1cccc(Nc2ncc3ncn(C4CCN(C(=O)CCl)C4)c3n2)c1` (stereo not drawn), the GI50 with COLO 205 colon was above 62500 nM; with RXF 393 renal it was above 62.5 µM; with SN12C renal, 29.1 µM; in the assay with HOP-92 NSCLC, above 62.5 µM; with UACC-62 melanoma, above 62.5 µM; with SK-MEL-5 melanoma, above 62.5 µM. Moreover, the GI50 in the assay on HCT-15 colon is above 62.5 µM; in the assay on CCRF-CEM leukemia, 2460 nM; with SK-MEL-2 melanoma, above 62.5 µM. The TGI in the assay on COLO 205 colon, in the assay with RXF 393 renal, with SN12C renal, in the assay with HOP-92 NSCLC, in the assay on UACC-62 melanoma and with SK-MEL-5 melanoma was above 62.5 µM in each case. Besides, the TGI with HCT-15 colon, with CCRF-CEM leukemia and in the assay on SK-MEL-2 melanoma was above 62.5 µM throughout.

`Cc1ccc(/C=C2\CN(Cc3cn(CCNc4ccnc5cc(Cl)ccc45)nn3)C/C(=C\c3ccc(C)cc3)C2=O)cc1`: the GI50 is 1890 nM with COLO 205 colon; 1.66 µM in the assay on OVCAR-4 ovarian; 1.67 µM with RXF 393 renal; 1.93 µM with SN12C renal; 1.45 µM in the assay on HOP-92 NSCLC; 1.88 µM in the assay with UACC-62 melanoma. The GI50 in the assay on SK-MEL-5 melanoma is 1.7 µM; in the assay on SK-MEL-2 melanoma, 1.99 µM. In addition, the TGI in the assay on COLO 205 colon was 3.42 µM; in the assay with OVCAR-4 ovarian, 3.57 µM; in the assay with RXF 393 renal it was 3.36 µM; in the assay with SN12C renal, 3.95 µM; in the assay with HOP-92 NSCLC, 3.01 µM; in the assay on UACC-62 melanoma it was 3.43 µM. The TGI in the assay with SK-MEL-5 melanoma turned out to be 3.12 µM; with SK-MEL-2 melanoma it was 3.65 µM.

As to `N=C1C(c2nc(-c3ccc(Br)cc3)cs2)=C(O)CN1CC1CCCO1` (stereo not drawn), the GI50 in the assay with COLO 205 colon was above 100000 nM; with RXF 393 renal, above 100 µM; in the assay with SN12C renal, above 100 µM; in the assay on HOP-92 NSCLC, above 100 µM; in the assay on UACC-62 melanoma, above 100 µM; in the assay with SK-MEL-5 melanoma it was above 100 µM. Further, the GI50 in the assay with HCT-15 colon was above 100 µM; with CCRF-CEM leukemia it was above 100000 nM; in the assay with SK-MEL-2 melanoma it was above 100 µM. For the same molecule, the TGI in the assay on COLO 205 colon, in the assay on RXF 393 renal, in the assay on SN12C renal, in the assay on HOP-92 NSCLC, in the assay with UACC-62 melanoma and in the assay on SK-MEL-5 melanoma was above 100 µM throughout. For the same molecule, the TGI in the assay with HCT-15 colon, with CCRF-CEM leukemia and in the assay with SK-MEL-2 melanoma was above 100 µM throughout.
